# Results reported in US9744177B2, “Treatment of male androgen deficiency symptoms or diseases with sex steroid precursor combined with SERM” (ENDORECHERCHE, INC., priority 2014, dated 2017).
# Entries after “also recorded” stand apart in the source; their conditions may differ. Counter-ions that a name gives are not always drawn. Like-named read-outs stand apart in the source and are kept apart here. Marks after values point to notes of the source that are not given here.
# Columns and labels:
# [1] = test system: ovariectomized female rats; experiment: 26-week treatment of ovariectomized female rats: lumbar spine BMD, total fat, cholesterol, ALP (Example 3, experiment 2); assay type: in vivo, Sprague-Dawley rats; conditions: OVX rats, 26 weeks, serum
# Method: Ten to twelve week-old female Sprague-Dawley rats (Crl:CD(SD)Br) (Charles River Laboratory, St-Constant, Canada) weighing approximately 220-270 g at start of treatment were used. The animals were acclimatized to the environmental conditions (temperature: 22±3° C.; humidity: 50±20%; 12-h light-12-h dark cycles, lights on at 07:15 h) for at least 1 week before starting the experiments. The animals were housed individually and were allowed free access to tap water and a pelleted certified rodent feed (Lab Diet 5002, Ralston Purina, St-Louis, Mo.). […]
# (§1) After 3 months (experiment 1) or 26 weeks (experiment 2) of treatment, individual rats under Isoflurane anesthesia had their whole body skeleton and lumbar spine scanned using dual energy x-ray absorptiometry (DEXA; QDR 4500A, Hologic, Waltham, Mass.) and a Regional High Resolution Scan software. The bone mineral density (BMD) of the lumbar spine (vertebrae L2 to L4) and the total body composition (fat percentage) were determined.
# After 3 months (experiment 1) or 26 weeks (experiment 2) of treatment, blood samples were collected at the jugular vein from overnight fasted animals (under Isoflurane anesthesia). […] Serum cholesterol levels and alkaline phospatase activity (ALP) were determined using the Boehringer Mannheim Diagnostic Hitachi 911 Analyzer (Boehringer Mannheim Diagnostic Laboratory Systems).
# Data are expressed as means±SEM. […]
# [2] = test system: estrone-stimulated uterine weight; experiment: Antiestrogenic activity: estrone-stimulated uterine weight in ovariectomized mice; assay type: in vivo, BALB/c mice; conditions: OVX mice + estrone; any dose used (1, 3 or 10 μg)
# Method: (§2) Female BALB/c mice (BALB/cAnNCrlBR) weighing 18-20 g were obtained from Charles-River, Inc. (St-Constant, Quebec, Canada) and housed 5 per cage in a temperature (23±1° C.)- and light (12 h light/day, lights on at 7:15)-controlled environment. The mice were fed rodent chow and tap water ad libitum. The animals were ovariectomized (OVX) under Isoflurane anesthesia via bilateral flank incisions and randomly assigned to groups of 10 animals. Ten mice were kept intact as controls.
# (§3) In the second experiment (Table 4), TSE 424 was administered orally by gavage once daily at doses of 1, 3, 10 or 30 μg/animal for 9 days, starting 2 days after ovariectomy. In both experiments, to evaluate the antiestrogenic activity, treatment with estrone (E1, 0.06 μg, s.c. injection, twice daily) was started 5 days post-ovariectomy and was administered for a 6 day-period. Compounds were dissolved in ethanol (4% final concentration) and administered in 0.4% methylcellulose. Mice in the intact and OVX control groups received the vehicle alone (4% ETOH-0.4% methylcellulose) during the 9-day period. The animals were killed by exsanguination at the abdominal aorta on the 11th morning following ovariectomy. The uteri and vagina were rapidly dissected, weighed, and kept in 10% buffered formalin for further histologic examination.
# ovariectomized mice = experiment: Estrogenic activity: uterine and vaginal weight in ovariectomized mice, compounds alone; assay type: in vivo, BALB/c mice; conditions: OVX mice, no estrone; daily oral 1 μg and 10 μg
# Method: as §2, §3
# [3] = 50 mg daily, 6 months, cited from earlier work
# [4] = 6 months; cited from earlier work
# [5] = test system: ovariectomized female rats; experiment: 5-week treatment of ovariectomized female rats with SERMs alone or with DHEA: BMD (Example 4); assay type: in vivo, Sprague-Dawley rats; conditions: OVX rats, 5 weeks; SERMs 2.5 mg/kg oral, DHEA 80 mg/kg topical
# Method: (§4) Ten to twelve week-old female Sprague-Dawley rats (Crl:CD(SD)Br) (Charles River Laboratory, St-Constant, Canada) weighing approximately 220-270 g at start of treatment were used. The animals were acclimatized to the environmental conditions (temperature: 22±3° C.; humidity: 50±20%; 12-h light-12-h dark cycles, lights on at 07:15 h) for at least 1 week before starting the experiments. The animals were housed individually and were allowed free access to tap water and a pelleted certified rodent feed (Lab Diet 5002, Ralston Purina, St-Louis, Mo.). Experiments were conducted in an animal facility approved by the Canadian Council on Animal Care (CCAC) and the Association for Assessment and Accreditation of Laboratory Animal Care (AAALAC) in accordance with the CCAC Guide for Care and Use of Experimental Animals.
# (§5) On Day 1 of the study, the animals of the appropriate groups were bilaterally ovariectomized (OVX) under isoflurane anesthesia. The DHEA was applied topically on the dorsal skin as a solution in 50% ethanol-50% propylene glycol while the tested SERMs were administered as suspension in 0.4% methylcellulose by oral gavage. Treatments were initiated on Day 2 of the study and were performed once daily during 5 weeks.
# After 5 weeks of treatment, individual rats under Isoflurane anesthesia had their lumbar spine, femur and tibia scanned using dual energy x-ray absorptiometry (DEXA; QDR 4500A, Hologic, Waltham, Mass.) and a Regional High Resolution Scan software. The bone mineral density (BMD) of the lumbar spine (vertebrae L2 to L4), distal femoral metaphysis (DFM) and proximal tibial metaphysis (PTM) were determined.
# Data are expressed as means±SEM. Statistical significance was determined according to the multiple-range test of Duncan-Kramer {Kramer, 1956 #37421.
# ovariectomized rats = experiment: 12-month treatment of ovariectomized rats with DHEA alone or with Flutamide or EM-800: bone histomorphometry, bone markers, serum lipids; assay type: in vivo, rat; conditions: OVX rats
# [6] = test system: biochemical parameters of bone metabolism; experiment: Treatment of rats with DHEA and EM-800 alone or in combination: biochemical parameters of bone metabolism, serum lipids; assay type: in vivo; conditions: rat; for effect on serum cholesterol / effect on serum triglycerides: 9 months, DHEA 10 mg percutaneously, EM-800 75 μg orally, once daily (FIG. 10)
# From the text: Data are expressed as the means±SEM. **: p<0.01 experimental versus respective control.
# It is thus important to analyze the changes in biochemical parameters of bone metabolism induced by various compounds and treatments in order to gain a better knowledge of their action (Table 2).
# It is particularly important to indicate that the combination of DHEA and acolbifene exerted unexpected beneficial effects on important biochemical parameters of bone metabolism. […] Moreover, no effect of DHEA could be detected on daily urinary calcium or phosphorus excretion (Luo, Sourla et al. 1997). EM-800 (prodrug of acolbifene free salt) decreased the urinary hydroxyproline/creatinine ratio by 48% while, similarly to DHEA, no effect of EM 800 (prodrug of acolbifene, free salt) was seen on urinary calcium or phosphorus excretion. EM-800, moreover, had no effect on serum alkaline phosphatase activity, a marker of bone formation while DHEA increased the value of the parameter by about 75% (Luo, Sourla et al. 1997).
# [7] = test system: ovariectomized female rats; experiment: 3-month treatment of ovariectomized female rats: lumbar spine BMD, total fat, cholesterol, ALP (Example 3, experiment 1); assay type: in vivo, Sprague-Dawley rats; conditions: OVX rats, 3 months, serum
# Method: as §4
# as §5, with “while the other tested compounds” for “while the tested SERMs”, “other tested compounds were administered” for “the tested SERMs were administered”, “daily during 3 months.” for “daily during 5 weeks.”
# as §1
# After 3 months (experiment 1) or 26 weeks (experiment 2) of treatment, blood samples were collected at the jugular vein from overnight fasted animals (under Isoflurane anesthesia). Samples were processed for serum preparation and frozen at −80° C. until assay. Serum cholesterol levels and alkaline phospatase activity (ALP) were determined using the Boehringer Mannheim Diagnostic Hitachi 911 Analyzer (Boehringer Mannheim Diagnostic Laboratory Systems).
# Data are expressed as means±SEM. Statistical significance was determined according to the multiple-range test of Duncan-Kramer (Kramer 1956).
# serum testosterone = experiment: Serum testosterone in male cynomolgus monkeys dosed orally; assay type: in vivo; conditions: oral 2.5, 10 or 40 mg acolbifene/day, 13 weeks
# Method: FIG. 13: Male cynomolgus monkeys were dosed orally with 2.5, 10 or 40 mg acolbifene/day for 13 weeks. Control monkeys received vehicle alone (0.4% methylcellulose). […] Results are expressed as the mean±SEM of 4 monkeys per group. P values (versus control) were calculated using a two-sided t test assuming equality of variances. FIG. 14: […] Control monkeys received vehicle alone (0.4% methylcellulose). […] P values (versus control) were calculated using a two-sided t test assuming equality of variances.
# uterine epithelial cells = experiment: Thickness of uterine (endometrial) epithelial cells in ovariectomized nude mice; conditions: no estrone, 200 μg daily
# serum E2 levels = experiment: Serum E2 in a premenopausal person with advanced breast cancer on acolbifene; assay type: in vivo, human; conditions: 20 mg daily oral, 6 months, from 222 before
# [8] = test system: human ZR-75-1 breast tumors; experiment: ZR-75-1 tumor growth in ovariectomized nude mice in absence of estrone (agonistic effects); conditions: no estrone, 200 μg daily, 161 days
smiles,measurement,setting,value
"Oc1ccc2c(c1)CC[C@H](c1ccccc1)[C@@H]2c1ccc(OCCN2CCCC2)cc1 (racemic) [lasofoxifene, (−)-cis-(5R,6S)-6-phenyl-5-[4-(2-pyrrolidin-1-ylethoxy)phenyl]-5,6,7,8-tetrahydronaphthalen-2-ol, D-(−)-tartrate salt]",CHOLESTEROL,[1],0.60 ± 0.02 mmol/L
"Oc1ccc2c(c1)CC[C@@H](c1ccccc1)[C@H]2c1ccc(OCCN2CCCC2)cc1 (single isomer, unassigned) [inactive enantiomer of lasofoxifene]",inhibitory effect on estrone-stimulated uterine weight,[2],no inhibitory effect
same,stimulatory effect on uterine weight,ovariectomized mice,no stimulatory effect
same,stimulatory effect on vaginal weight,ovariectomized mice,no stimulatory effect
"C[C@]12CC[C@H](O)CC1=CC[C@@H]1[C@@H]2CC[C@]2(C)C(=O)CC[C@@H]12 [DHEA, dehydroepiandrosterone]",decrease of responsiveness of serum insulin to the glucose tolerance test,[3],13%
same,improvement in the insulin sensitivity index,[3],34%
same,decrease of abdominal subcutaneous fat,[3]; both women and men,6%
same,decrease of abdominal visceral fat,[3]; men 65 to 78 years,7.4%
same,decrease of abdominal visceral fat,[3]; women 65 to 78 years,10.2%
same,decrease of total body fat mass,[4],1.4 kg
same,increase of fat-free mass,[4],0.9 kg
same,DISTAL FEMORAL METAPHYSIS (DFM) BMD,[5],0.2934 ± 0.0046 g/cm^2
same,DISTAL FEMORAL METAPHYSIS (DFM) Prevention of Bone Loss,[5],71%
same,LUMBAR SPINE (L2-L4) BMD,[5],0.2144 ± 0.0028 g/cm^2
same,LUMBAR SPINE (L2-L4) Prevention of Bone Loss,[5],44%
same,PROXIMAL TIBIAL METAPHYSIS (PFM) BMD,[5],0.2672 ± 0.0041 g/cm^2
same,PROXIMAL TIBIAL METAPHYSIS (PFM) Prevention of Bone Loss,[5],42%
same,increase in trabecular bone number compared to ovariectomized controls,ovariectomized rats,137%
same,reduction (inhibitory effect) of serum cholesterol,ovariectomized rats,22%
same,trabecular bone number,ovariectomized rats,1.27±0.1 per mm
same,trabecular bone volume of the tibia,ovariectomized rats,11.9±0.6%
same,Alkaline phosphatase,ovariectomized rats; serum,201±25 IU/L
same,CHOLESTEROL,ovariectomized rats; serum,1.78 ± 0.16 mmol/L
same,Triglycerides,ovariectomized rats; serum,0.8 ± 0.1 mmol/L
same,OH-proline/creatinine,ovariectomized rats; urine,7.3±1.0 μmol/mmol
same,effect on serum cholesterol,[6],no effect
same,effect on serum triglycerides,[6],inhibitory effect
"C[C@]12CC[C@@H]3c4ccc(O)cc4CC[C@H]3[C@@H]1CC[C@@H]2O [E2, 17β-estradiol]",ALP,[7],59 ± 4 IU/L
"CC1=C(c2ccc(O)cc2)[C@H](c2ccc(OCCN3CCCCC3)cc2)Oc2cc(O)ccc21.Cl [EM-652.HCl, (S)-(+)-7-hydroxy-3-(4′-hydroxyphenyl)-4-methyl-2-(4″-(2′″-piperidinoethoxy)phenyl)-2H-1-benzopyran hydrochloride]",serum testosterone levels (FIGS. 13 and 14),serum testosterone,increased serum testosterone levels
same,CHOLESTEROL,[1],0.98 ± 0.06 mmol/L
same,"height of uterine epithelial cells, % of the OVX control group value",uterine epithelial cells,114%
same,serum E2 levels,serum E2 levels,2030 pg/mL
same,effect of compound alone on ZR-75-1 tumor size compared to OVX control,[8]; hydrochloride,did not exert any stimulatory effect; also recorded: did not significantly change
same,effect of compound alone on ZR-75-1 tumor size compared to OVX control,"[8]; listed as Acolbifene, hydrochloride",no effect on tumor growth
same,ALP,[7],91 ± 6 IU/L
same,CHOLESTEROL,[7],0.87 ± 0.04 mmol/L
"CC1=C(c2ccc(OC(=O)C(C)(C)C)cc2)[C@H](c2ccc(OCCN3CCCCC3)cc2)Oc2cc(OC(=O)C(C)(C)C)ccc21 [EM-800, (S)-(+)-4-[7-(2,2-dimethyl-1-oxopropoxy)-4-methyl-2-[4-[2-(1-piperidinyl)-ethoxy]phenyl]-2H-1-benzopyran-3-yl]-phenyl 2,2-dimethylpropanoate]",effect on serum cholesterol,[6],decreases
same,effect on serum triglycerides,[6],decreases
same,URINE HP/Cr (hydroxyproline/creatinine ratio),"[6]; DHEA 10 mg, EM-800 75 μg",6.81 ± 0.84** μmol/mmol
CC/C(=C(\c1ccccc1)c1ccc(/C=C/C(=O)O)cc1)c1ccccc1 [GW 5638],effect of compound alone on ZR-75-1 tumor size compared to OVX control,[8],did not significantly change
same,ALP,[7],72 ± 6 IU/L
"CC/C(=C(/c1ccc(OCCN(C)C)cc1)c1cccc(O)c1)c1ccccc1 [droloxifene, (E)-3-[1-[4-[2-(Dimethylamino)ethoxy]phenyl]-2-phenyl-1-butenyl]phenol]",effect of compound alone on ZR-75-1 tumor size compared to OVX control,[8],did not significantly change
"Cl.O=C(c1ccc(OCCN2CCCCC2)cc1)c1c(-c2ccc(O)cc2)sc2cc(O)ccc12 [raloxifene, [2-(4-hydroxyphenyl)-6-hydroxybenzo[b]thien-3-yl][4-[2-(1-piperidinyl)ethoxy]phenyl]-methanone hydrochloride]",effect of compound alone on ZR-75-1 tumor size compared to OVX control,[8],did not significantly change
"CC/C(=C(\c1ccccc1)c1ccc(OCCN(C)C)cc1)c1ccccc1 [tamoxifen, (Z)-2-[4-(1,2-diphenyl-1-butenyl)phenoxy]-N,N-dimethylethanamine]",stimulatory effect on tumor growth (FIG. 15),[8]; OVX nude mice,approximately 100%
"CN(C)CCOc1ccc(/C(=C(/CCCl)c2ccccc2)c2ccccc2)cc1 [toremifene, (Z)-2-[4-(4-Chloro-1,2-diphenyl-1-butenyl)phenoxy]-N,N-dimethylethanamine]",average tumor size increase over baseline,[8]; OVX nude mice,86%
